PubChem BioAssay (NCI)
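Method: 48-hour compound exposure of cells in 96-well plates, five concentrations, linear interpolation of endpoints. Abbreviation: GI50, concentration required for 50% inhibition of growth. Definition used: TGI = concentration required for complete inhibition of growth.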

What was measured:
Assay in all cases: NCI anticancer screen, dose series, 48 h
[1] = tested on: HS 578T breast
[2] = tested on: MDA-N
[3] = tested on: HOP-92 NSCLC
[4] = tested on: BT-549 breast
[5] = tested on: MDA-MB-231 breast
[6] = tested on: PC-3 prostate
[7] = tested on: T-47D breast
[8] = tested on: DMS 273 small cell lung
[9] = tested on: KM20L2 colon
[10] = tested on: LXFL 529 NSCLC
[11] = tested on: XF 498 CNS
[12] = tested on: M19-MEL melanoma
[13] = tested on: SNB-78 CNS
[14] = tested on: DMS 114 small cell lung
[15] = tested on: HOP-18 NSCLC
[16] = tested on: RXF-631 renal

With `O=[N+]([O-])/C=C/c1cccc(F)c1` the TGI [1] was 9.18 µM, the TGI [2] was 14 µM and the TGI [3] was 27.6 µM. It also gave a TGI [4] of 4.91 µM, a TGI [5] of 38.2 µM and a TGI [6] of 11.9 µM. It also gave a TGI [7] of 72.5 µM.
Work on `CN[C@@H]1[C@H](O)[C@H](NC)[C@H]2O[C@@]3(O)C(=O)C[C@@H](C)O[C@H]3O[C@@H]2[C@H]1O` yielded a TGI [1] of over 100 µM, a TGI [2] of over 100 µM and a TGI [3] of over 100 µM. For the same compound, the TGI [4] was over 100 µM, the TGI [5] was over 100 µM and the TGI [6] was over 100 µM. The TGI [7] was over 100 µM.
Compound `Nc1nc(SCCC/C=C/B(O)O)nc2c1ncn2C1OC(CO)C(O)C1O` (configuration not stated) has a TGI [8] of over 243 µM, a TGI [9] of over 243 µM and a TGI [10] of over 243 µM. For the same compound, the TGI [11] was over 243 µM, the TGI [12] was over 243 µM and the TGI [3] was over 243 µM. The TGI [13] was over 243 µM.
Compound `C=C(/C=C/C=C(/CCC=C(C)C)COC(C)=O)[C@@H]1CC[C@]2([C@H](CCCO)/C(=C(/C)C=O)CC[C@]2(C)O)[C@@H]1O` has a TGI [8] of 21.1 µM, a TGI [9] of 27.9 µM and a TGI [14] of 28.8 µM. It also gave a TGI [12] of 33.3 µM and a TGI [15] of 23.7 µM.
`CC1(C)[C@@H]2C[C@H]1C(Cc1ccccc1C[C@H]1c3cc(-c4ccccn4)ncc3[C@H]3C[C@@H]1C3(C)C)c1cc(-c3ccccn3)ncc12` (some centres not stated) gave a TGI [1] of over 100 µM, a TGI [2] of over 100 µM and a TGI [4] of over 31.6 µM. It also gave a TGI [5] of over 68 µM and a TGI [7] of 3.6 µM.
`COc1cc2c(cc1OC)C(C1(O)CCCCC1)NCC2` (configuration not stated) was tested, and the TGI [8] was over 100 µM, the TGI [9] was over 100 µM and the TGI [10] was over 100 µM. For the same compound, the TGI [11] was over 100 µM, the TGI [12] was over 100 µM and the TGI [3] was over 100 µM.
`C#CCCCCC#CC1CCCC1C1=CC(=O)c2ccccc21` (configuration not stated) gave a TGI [8] of 11.9 µM, a TGI [9] of 22 µM and a TGI [11] of 20.8 µM. The TGI [14] was 6.97 µM, the TGI [15] was 25 µM and the TGI [3] was 16.1 µM.
`CN(C)CCNc1ccc2nnn3c4ccc(Cl)cc4c(=O)c1c23` showed a TGI [9] of 16 µM, a TGI [1] of 13.5 µM and a TGI [10] of 19.2 µM. For the same compound, the TGI [11] was 23.8 µM, the TGI [12] was 15.1 µM and the TGI [2] was 16.9 µM. The TGI [3] was 14.2 µM, the TGI [4] was 34.8 µM and the TGI [16] was 16.4 µM. The TGI [5] was 25.7 µM, the TGI [6] was 13.6 µM and the TGI [13] was 34.9 µM. For the same compound, the TGI [7] was 49.2 µM.
`Cc1c(Cl)c(S(N)(=O)=O)cc(S(N)(=O)=O)c1NC(=O)c1ccc(Cl)cc1` was tested, and the TGI [1] was over 100 µM, the TGI [2] was over 100 µM and the TGI [3] was over 100 µM. The TGI [4] was over 100 µM, the TGI [6] was over 100 µM and the TGI [7] was over 100 µM.
`NC(=O)c1nnc2cc(F)c(F)cc2c1N` gave a TGI [1] of 84.4 µM, a TGI [2] of over 100 µM and a TGI [4] of 45.6 µM. For the same compound, the TGI [5] was over 100 µM, the TGI [6] was over 100 µM and the TGI [7] was over 100 µM.
Compound `NC(Cc1ccc2oc3cc(=O)c4ccccc4c-3nc2c1)C(=O)O` (configuration not stated) has a TGI [8] of over 60.1 µM, a TGI [9] of over 100 µM and a TGI [1] of 59.6 µM. The TGI [10] was over 100 µM, the TGI [14] was 41.1 µM and the TGI [2] was 14.8 µM. For the same compound, the TGI [15] was 77.7 µM, the TGI [3] was over 100 µM and the TGI [4] was 40.5 µM. The TGI [5] was over 100 µM, the TGI [6] was over 100 µM and the TGI [13] was over 100 µM. For the same compound, the TGI [7] was over 84.7 µM.
`Cc1ccccc1N=Nc1ccc(N=Nc2c(O)ccc3cc(S(=O)(=O)O)cc(S(=O)(=O)O)c23)c(C)c1` was tested, and the TGI [1] was over 100 µM, the TGI [3] was over 100 µM and the TGI [4] was over 100 µM. It also gave a TGI [5] of over 100 µM and a TGI [6] of over 100 µM.
Compound `Cc1ccc(NCCN(C)CC(C)O)c2c(=O)c3ccc(Cl)cc3sc12` (configuration not stated) has a GI50 [1] of 2.83 µM, a TGI [1] of over 100 µM and a GI50 [4] of 5.14 µM. It also gave a TGI [4] of over 100 µM, a GI50 [6] of 2.96 µM and a TGI [6] of over 100 µM.
Compound `O=S(=O)(O)c1cc(O)c2c(O)c(N=Nc3ccc(/C=C/c4ccc(N=Nc5c(S(=O)(=O)O)cc6cc(S(=O)(=O)O)cc(O)c6c5O)cc4S(=O)(=O)O)c(S(=O)(=O)O)c3)c(S(=O)(=O)O)cc2c1` has a TGI [8] of over 100 µM, a TGI [9] of over 100 µM and a TGI [10] of over 100 µM. For the same compound, the TGI [11] was over 100 µM, the TGI [14] was over 100 µM and the TGI [12] was over 100 µM. It also gave a TGI [15] of over 100 µM and a TGI [3] of over 100 µM.
For `C/C=C1/CN2CC[C@@H]3c4ccccc4N4[C@H](C(=O)OC)[C@H]1C[C@H]2[C@]34/C=C/C1=COC[C@@H]2[C@H]1C[C@H]1c3c(c4ccccc4n3C)C[C@@H]2N1C`, the TGI [1] was 8.93 µM, the TGI [2] was 5.41 µM and the TGI [3] was 9 µM. The TGI [4] was 8.05 µM, the TGI [5] was 8.93 µM and the TGI [6] was 6.09 µM. For the same compound, the TGI [7] was 8.68 µM.
